Measured values published in patent US9957257B2, “Amide compounds as 5-HT4 receptor agonists” (SUVEN LIFE SCIENCES LIMITED, priority 2015, dated 2018).
pEC50: −log10 of the molar value. Counter-ions that a name gives are not always drawn.

target: T1, recombinant human 5-HT4 receptor (Homo sapiens, UniProt Q13639); test: Determination of EC50 values for 5-HT4 receptor (CHO cells, pCRE-Luc reporter); format: cell-based; conditions: luciferase reporter, 4 hours incubation, read-out: 5-HT4 receptor agonistic binding in-vitro EC50
T1 construct: expressed in transfected cells
Description: A stable CHO cell line expressing recombinant human 5-HT4 receptor and pCRE-Luc reporter system was used for cell-based assay. The assay offers a non-radioactive based approach to determine binding of a compound to GPCRs. In this specific assay, the level of intracellular cyclic AMP, which is modulated by activation, or inhibition of the receptor is measured. The recombinant cells harbor luciferase reporter gene under the control of cAMP response element.
The above cells were grown in 96 well clear bottom white plates in Hams F12 medium containing 10% fetal bovine serum (FBS). Prior to the addition of compounds or standard agonist, cells were serum starved overnight. Increasing concentrations of test compounds were added in OptiMEM medium to the cells. The incubation was continued at 37° C. in CO2 incubator for 4 hours. Medium was removed and cells were washed with phosphate buffered saline. The cells were lysed and luciferase activity was measured in a Luminometer. Luminescence units were plotted against the compound concentrations using Graphpad software. EC50 values of the compounds were defined as the concentration required in stimulating the luciferase activity by 50%.

T1 sequence (Q13639 whole entry): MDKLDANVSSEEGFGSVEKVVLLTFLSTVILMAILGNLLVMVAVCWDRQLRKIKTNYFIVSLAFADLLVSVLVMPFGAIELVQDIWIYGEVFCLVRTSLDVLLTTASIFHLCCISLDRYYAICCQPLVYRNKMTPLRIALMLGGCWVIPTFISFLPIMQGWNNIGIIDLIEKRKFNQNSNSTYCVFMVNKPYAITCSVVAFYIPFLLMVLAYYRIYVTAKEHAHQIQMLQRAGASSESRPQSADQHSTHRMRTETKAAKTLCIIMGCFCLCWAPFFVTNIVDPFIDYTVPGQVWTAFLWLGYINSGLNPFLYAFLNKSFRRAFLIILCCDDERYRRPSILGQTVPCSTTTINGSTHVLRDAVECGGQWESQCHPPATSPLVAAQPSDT

| pEC50 | Compound |
| --- | --- |
| ≥ 9.00 | Nc1c(Cl)cc(C(=O)NCC2C3CN(CC4CCOCC4)CC23)c2c1CCCO2 (stereo not drawn) [Example 1, 5-Amino-6-chloro-N-{[3-(tetrahydro-2H-pyran-4-ylmethyl)-3-azabicyclo[3.1.0]hex-6-yl]methyl}chroman-8-carboxamide hydrochloride] |
| 8.30 to 8.96 | Nc1c(Cl)cc(C(=O)NCC2C3CN(C4CCOCC4)CC23)c2c1CCCO2 (stereo not drawn) [Example 6, 5-Amino-6-chloro-N-{[3-(tetrahydro-2H-pyran-4-yl)-3-azabicyclo[3.1.0]hex-6-yl]methyl}chroman-8-carboxamide L(+)-tartarate] |
| ≥ 9.00 | Nc1c(Cl)cc(C(=O)NCC2[C@H]3CN(CC4CCOC4)C[C@@H]23)c2c1CCCO2 (stereo partly drawn) [Example 8, (R,S) 5-Amino-6-chloro-N-{[3-(tetrahydro-3-furanylmethyl)-3-azabicyclo[3.1.0]hex-6-yl]methyl}chroman-8-carboxamide] |
| 8.30 to 8.96 | Nc1c(Cl)cc(C(=O)NCC2(F)CCN(CC3CCOC3)CC2)c2c1CCCO2 (stereo not drawn) [Example 10, 5-Amino-6-chloro-N-{[4-fluoro-1-(tetrahydro-3-furanylmethyl)-4-piperidinyl]methyl}chroman-8-carboxamide] |
| 8.30 to 8.96 | Nc1c(Cl)cc(C(=O)NCC2C3CN(CC4CCC4)CC23)c2c1CCO2 (stereo not drawn) [Example 22, 4-Amino-5-chloro-N-{[3-(cyclobutylmethyl)-3-azabicyclo[3.1.0]hex-6-yl]methyl}-2,3-dihydrobenzofuran-7-carboxamide oxalate] |
| 8.30 to 8.96 | Nc1c(Cl)cc(C(=O)NCC2C3CN(CC4CCOCC4)CC23)c2c1CCO2 (stereo not drawn) [Example 26, 4-Amino-5-chloro-N-{[3-(tetrahydropyran-4-ylmethyl)-3-azabicyclo[3.1.0]hex-6-yl]methyl}-2,3-dihydrobenzofuran-7-carboxamide L(+)-tartarate] |
| 8.00 to 8.29 | Nc1c(Cl)cc(C(=O)NCC2C3CN(C4CCOCC4)CC23)c2c1CCO2 (stereo not drawn) [Example 28, 4-Amino-5-chloro-N-{[3-(tetrahydropyran-4-yl)-3-azabicyclo[3.1.0]hex-6-yl]methyl}-2,3-dihydrobenzofuran-7-carboxamide oxalate] |
| 8.30 to 8.96 | Nc1c(Cl)cc(C(=O)NCC2C3CN(CC4(O)CCOCC4)CC23)c2c1CCCO2 (stereo not drawn) [Example 30, 5-Amino-6-chloro-N-{[3-(4-hydroxytetrahydro-2H-pyran-4-ylmethyl)-3-azabicyclo[3.1.0]hex-6-yl]methyl}chroman-8-carboxamide L(+)-tartarate] |
| ≥ 9.00 | Nc1c(Cl)cc(C(=O)NCC2C3CN(CC4(F)CCOCC4)CC23)c2c1CCCO2 (stereo not drawn) [Example 36, 5-Amino-6-chloro-N-{[3-(4-fluorotetrahydro-2H-pyran-4-ylmethyl)-3-azabicyclo[3.1.0]hex-6-yl]methyl}chroman-8-carboxamide L(+)-tartarate] |
| ≥ 9.00 | CC(C)(O)CN1CCC(CNC(=O)c2cc(Cl)c(N)c3c2OCCC3)CC1 [Example 40, 5-Amino-6-chloro-N-{[1-(2-hydroxy-2-methylpropyl)-4-piperidinyl]methyl}chroman-8-carboxamide] |
| 7.70 to 8.00 | CC(C)(O)CN1CCC(CNC(=O)c2cc(Cl)c(N)c3c2OCCC3)CC1 [Example 41, 5-Amino-6-chloro-N-{[1-(2-hydroxy-2-methylpropyl)-4-piperidinyl]methyl}chroman-8-carboxamide L(+)-tartarate] |
| 8.00 to 8.29 | CC(C)(O)CN1CC2C(CNC(=O)c3cc(Cl)c(N)c4c3OCC4)C2C1 (stereo not drawn) [Example 42, 4-Amino-5-chloro-N-{[3-(2-hydroxy-2-methylpropyl)-3-azabicyclo[3.1.0]hex-6-yl]methyl}-2,3-dihydrobenzofuran-7-carboxamide oxalate] |

The next lines start with the molecule.

| Compound | pEC50 |
| --- | --- |
| Nc1ccc(C(=O)NCC2C3CN(CC4CCOCC4)CC23)c2c1CCCO2 (stereo not drawn) [Example 7, 5-Amino-N-{[3-(tetrahydro-2H-pyran-4-ylmethyl)-3-azabicyclo[3.1.0]hex-6-yl]methyl}chroman-8-carboxamide L(+)-tartarate] | 7.70 to 8.00 |
| Nc1c(Br)cc(C(=O)NCC2C3CN(CC4CCOCC4)CC23)c2c1CCCO2 (stereo not drawn) [Example 12, 5-Amino-6-bromo-N-{[3-(tetrahydro-2H-pyran-4-ylmethyl)-3-azabicyclo[3.1.0]hex-6-yl]methyl}chroman-8-carboxamide L(+)-tartarate] | 8.30 to 8.96 |
| Nc1c(Cl)cc(C(=O)NCC2C3CN(CC4CCOCC4)CC23)c2occc12 (stereo not drawn) [Example 13, 4-Amino-5-chloro-N-{[3-(tetrahydro-2H-pyran-4-ylmethyl)-3-azabicyclo[3.1.0]hex-6-yl]methyl}benzofuran-7-carboxamide hydrochloride] | 8.00 to 8.29 |
| Nc1c(Cl)cc(C(=O)NCC2C3CN(C4CCOCC4)CC23)c2occc12 (stereo not drawn) [Example 15, 4-Amino-5-chloro-N-{[3-(tetrahydro-2H-pyran-4-yl)-3-azabicyclo[3.1.0]hex-6-yl]methyl}benzofuran-7-carboxamide oxalate] | 7.70 to 8.00 |
| COC(=O)N1CCC(N2CC3C(CNC(=O)c4cc(Cl)c(N)c5ccoc45)C3C2)CC1 (stereo not drawn) [Example 17, 4-Amino-5-chloro-N-{[3-(1-methoxycarbonylpiperidine-4-yl)-3-azabicyclo[3.1.0]hex-6-yl]methyl}benzofuran-7-carboxamide oxalate] | 8.00 to 8.29 |
| Cc1cc2c(N)c(Cl)cc(C(=O)NCC3C4CN(CC5CCOCC5)CC34)c2o1 (stereo not drawn) [Example 18, 4-Amino-5-chloro-2-methyl-N-{[3-(tetrahydro-2H-pyran-4-ylmethyl)-3-azabicyclo[3.1.0]hex-6-yl]methyl}benzofuran-7-carboxamide hydrochloride] | 8.30 to 8.96 |
| CC(C)N1CC2C(CNC(=O)c3cc(Cl)c(N)c4c3OCC4)C2C1 (stereo not drawn) [Example 20, 4-Amino-5-chloro-N-[(3-isopropyl-3-azabicyclo[3.1.0]hex-6-yl)methyl]-2,3-dihydrobenzofuran-7-carboxamide oxalate] | 8.00 to 8.29 |
| COC(=O)N1CCC(N2CC3C(CNC(=O)c4cc(Cl)c(N)c5c4OCC5)C3C2)CC1 (stereo not drawn) [Example 24, 4-Amino-5-chloro-N-{[3-(1-methoxycarbonylpiperidine-4-yl)-3-azabicyclo[3.1.0]hex-6-yl]methyl}-2,3-dihydrobenzofuran-7-carboxamide L(+)-tartarate] | 8.00 to 8.29 |
| Nc1c(Br)cc(C(=O)NCC2C3CN(C4CCOCC4)CC23)c2c1CCO2 (stereo not drawn) [Example 29, 4-Amino-5-bromo-N-{[3-(tetrahydropyran-4-yl)-3-azabicyclo[3.1.0]hex-6-yl]methyl}-2,3-dihydrobenzofuran-7-carboxamide oxalate] | 7.70 to 8.00 |
| Nc1c(Cl)cc(C(=O)NCC2C3CN(CC4(O)CCOCC4)CC23)c2occc12 (stereo not drawn) [Example 32, 4-Amino-5-chloro-N-{[3-(4-hydroxytetrahydro-2H-pyran-4-ylmethyl)-3-azabicyclo[3.1.0]hex-6-yl]methyl}benzofuran-7-carboxamide oxalate] | 8.00 to 8.29 |
| Nc1c(Cl)cc(C(=O)NCC2C3CN(CC4(O)CCOCC4)CC23)c2c1CCO2 (stereo not drawn) [Example 35, 4-Amino-5-chloro-N-{[3-(4-hydroxytetrahydropyran-4-ylmethyl)-3-azabicyclo[3.1.0]hex-6-yl]methyl}-2,3-dihydrobenzofuran-7-carboxamide oxalate] | 8.30 to 8.96 |
| CC(C)(O)CN1CCC(F)(CNC(=O)c2cc(Cl)c(N)c3ccoc23)CC1 [Example 38, 4-Amino-5-chloro-N-{[4-fluoro-1-(2-hydroxy-2-methylpropyl)-4-piperidinyl]methyl}benzofuran-7-carboxamide] | 8.00 to 8.29 |
